Test [1] has as its target T1, chicken liver FAS (Gallus gallus, UniProt P12276).
T1 construct: The purification, storage, and application of the chicken liver FAS were conducted following established procedures; from tissue; host or cells: chicken liver (chickens from Huadu Broiler Corporation, Beijing)
Nature of the test: FAS overall reaction, fast-binding inhibition (NADPH decrease at 340 nm). In kind it is biochemical. How it is done:
(§1) The FAS employed in this study was sourced from chicken liver, given that the amino acid sequence of chicken FAS shares 63% identity with its human counterpart. The chickens were purchased from Huadu Broiler Corporation, Beijing, China. The purification, storage, and application of the chicken liver FAS were conducted following established procedures. Animal procedures adhered to the Guidelines for the Care and Use of Laboratory Animals as set forth by the Beijing Association for Laboratory Animal Science. […] Concentrations of the enzyme and substrates were determined through absorption measurements, with extinction coefficients being utilized as previously outlined.
(§2) The overall reaction of FAS and the β-ketoacyl reduction facilitated by KR (a functional domain of FAS) were assessed using an Amersham Pharmacia Ultrospec 4300 pro UV-Vis spectrophotometer (GE Healthcare China Company, Beijing, China) at 37 °C by monitoring the decrease of NADPH at 340 nm. The overall reaction mixture comprised potassium phosphate buffer (100 mM, pH 7.0), ethylenediaminetetraacetic acid (EDTA) (1 mM), 1,4-dithiothreitol (DTT) (1 mM), acetyl-CoA (6 µM), malonyl-CoA (12 µM), NADPH (37.5 µM), and chicken liver FAS (10 µg), with a total volume of 2.0 mL. For the KR reaction, the mixture included ethyl acetoacetate (40 mM), NADPH (35 µM), 1 mM of EDTA, and the enzyme (15 µg) in 100 mM of phosphate buffer at pH 7.0, with a total volume of 2.0 mL [41].
(§3) The extent of inhibition was quantified by determining the IC50 value through a plot of residual activity against varying inhibitor concentrations.

Test [2] has as its target T2, KR (a functional domain of FAS) (Gallus gallus, UniProt P12276).
T2 construct: The purification, storage, and application of the chicken liver FAS were conducted following established procedures; from tissue; host or cells: chicken liver (chickens from Huadu Broiler Corporation, Beijing)
The test is described as follows: KR reaction of FAS, fast-binding inhibition (ethyl acetoacetate, NADPH). In kind it is biochemical, chicken. The method, then: as §1
The overall reaction of FAS and the β-ketoacyl reduction facilitated by KR (a functional domain of FAS) were assessed using an Amersham Pharmacia Ultrospec 4300 pro UV-Vis spectrophotometer (GE Healthcare China Company, Beijing, China) at 37 °C by monitoring the decrease of NADPH at 340 nm. The overall reaction mixture comprised potassium phosphate buffer (100 mM, pH 7.0), ethylenediaminetetraacetic acid (EDTA) (1 mM), 1,4-dithiothreitol (DTT) (1 mM), acetyl-CoA (6 µM), malonyl-CoA (12 µM), NADPH (37.5 µM), and chicken liver FAS (10 µg), with a total volume of 2.0 mL. […]
as §3

The target of test [3] is T1, chicken liver FAS. The test is described as follows: Enzyme kinetics study, FAS overall reaction (double reciprocal plots). In kind it is biochemical. Conditions: LR 0-15.0 μg/mL. The method, then:
as §2
(§4) Double reciprocal plots were generated for each inhibitor concentration to determine the competitive relationship between the variable substrate and inhibitor concentrations. This study focused on examining fast-binding inhibition.

The target of test [4] is T2, KR (a functional domain of FAS). Nature of the test: Enzyme kinetics study, KR reaction of FAS (double reciprocal plots). Conditions: NADPH variable substrate, LR 0-15.0 μg/mL. The class given is biochemical, chicken. How it is done: as §2, §4
In another test the test system is CaCo2 cells. Nature of the test: Cell viability, MTT assay. In kind it is cell-based, human. From the text: (§5) The human colon cancer cell lines CaCo2, LoVo, and SW620 were purchased from the Type Culture Collection of the Chinese Academy of Sciences (Shanghai, China). The CaCo2 cell line, originating from a human colon adenocarcinoma isolated in the 1970s, undergoes processes of proliferation, confluency, and differentiation during growth. […] LoVo, another cell line isolated in 1971 from the large intestine of a person with grade IV Dukes C colorectal cancer, offers applications in cancer, toxicology, and immuno-oncology research. SW620 cells, obtained from the large intestine of a person Dukes C colorectal cancer patient, are valuable resources for cancer and toxicology investigations. Cells were grown in Dulbecco’s Modified Eagle Medium (DMEM) supplemented with 10% fetal bovine serum (FBS) and were maintained in a humidified atmosphere containing 95% air and 5% CO2 at 37 °C.
(§6) LR was examined to evaluate its inhibition on the proliferation of CaCo2, LoVo, and SW620 cells. CaCo2, LoVo, and SW620 cells were grown in 96-well plates until reaching confluence and were treated with either DMSO (1:1000) or increasing doses of LR for 24 h at 37 °C. Following this, the cell medium was replaced with fresh medium containing 500 µg/mL MTT. After a 4-h incubation at 37 °C, the plates were decanted, and 150 µL of DMSO was added to dissolve the formazan crystals. Subsequently, the plate was analyzed using a microplate spectrophotometer (Multiskan, MK3) (Thermo Fisher Scientific Inc., Waltham, MA, USA) at a wavelength of 492 nm. Each experiment was conducted five times on three separate occasions.

A further test relates to LoVo cells. The test is described as follows: Cell viability, MTT assay. The class given is cell-based, human. The conditions noted are these: 24 h.
Source text: as §5, §6
In general terms: Tetrazolium dyes change colour on reduction, which living cells bring about.

For the next test, the system named is SW620 cells. Nature of the test: Cell viability, MTT assay. In kind it is cell-based, human.
Source text: as §5, §6

Test [5] addresses T3, intracellular FAS activity in CaCo2 cells (Homo sapiens, UniProt P49327).
T3 construct: the cells were sonicated at 4 °C and centrifuged at 12,000 rpm for 15 min at 4 °C to obtain particle-free supernatants; endogenous in cells; host or cells: CaCo2, LoVo, SW620
The test is described as follows: Intracellular FAS activity assay. In kind it is cell-based. The conditions noted are these: LR 60 µg/mL, 24 h.
Source text: as §5
(§7) Cells were exposed to LR for 24 h, followed by collection through trypsinization, centrifugation, triple washing, and resuspension in cold PBS. Subsequently, the cells were sonicated at 4 °C and centrifuged at 12,000 rpm for 15 min at 4 °C to obtain particle-free supernatants. The intracellular FAS activity was assessed spectrophotometrically by measuring the reduction in absorbance at 340 nm due to the oxidation of NADPH. A total volume of 500 µL of buffer comprising 50 µL of particle-free supernatant, 25 mM of KH2PO4-K2HPO4 buffer, 0.25 mM of EDTA, 0.25 mM of dithiothreitol, 30 µM of acetyl-CoA, and 350 µM of NADPH (pH 7.0) was monitored at 340 nm for 1 min to establish baseline NADPH oxidation. Following the addition of […] of malonyl-CoA, the reaction was further monitored for 1 min to determine FAS-dependent NADPH oxidation.

Test [6] concerns the target T4, intracellular FAS activity in LoVo cells (Homo sapiens, UniProt P49327).
T4 construct: the cells were sonicated at 4 °C and centrifuged at 12,000 rpm for 15 min at 4 °C to obtain particle-free supernatants; endogenous in cells; host or cells: CaCo2, LoVo, SW620
Nature of the test: Intracellular FAS activity assay. The class given is cell-based.
Source text: as §5, §7

The target of test [7] is T5, intracellular FAS activity in SW620 cells (Homo sapiens, UniProt P49327).
T5 construct: the cells were sonicated at 4 °C and centrifuged at 12,000 rpm for 15 min at 4 °C to obtain particle-free supernatants; endogenous in cells; host or cells: CaCo2, LoVo, SW620
T5 sequence (P49327 whole entry): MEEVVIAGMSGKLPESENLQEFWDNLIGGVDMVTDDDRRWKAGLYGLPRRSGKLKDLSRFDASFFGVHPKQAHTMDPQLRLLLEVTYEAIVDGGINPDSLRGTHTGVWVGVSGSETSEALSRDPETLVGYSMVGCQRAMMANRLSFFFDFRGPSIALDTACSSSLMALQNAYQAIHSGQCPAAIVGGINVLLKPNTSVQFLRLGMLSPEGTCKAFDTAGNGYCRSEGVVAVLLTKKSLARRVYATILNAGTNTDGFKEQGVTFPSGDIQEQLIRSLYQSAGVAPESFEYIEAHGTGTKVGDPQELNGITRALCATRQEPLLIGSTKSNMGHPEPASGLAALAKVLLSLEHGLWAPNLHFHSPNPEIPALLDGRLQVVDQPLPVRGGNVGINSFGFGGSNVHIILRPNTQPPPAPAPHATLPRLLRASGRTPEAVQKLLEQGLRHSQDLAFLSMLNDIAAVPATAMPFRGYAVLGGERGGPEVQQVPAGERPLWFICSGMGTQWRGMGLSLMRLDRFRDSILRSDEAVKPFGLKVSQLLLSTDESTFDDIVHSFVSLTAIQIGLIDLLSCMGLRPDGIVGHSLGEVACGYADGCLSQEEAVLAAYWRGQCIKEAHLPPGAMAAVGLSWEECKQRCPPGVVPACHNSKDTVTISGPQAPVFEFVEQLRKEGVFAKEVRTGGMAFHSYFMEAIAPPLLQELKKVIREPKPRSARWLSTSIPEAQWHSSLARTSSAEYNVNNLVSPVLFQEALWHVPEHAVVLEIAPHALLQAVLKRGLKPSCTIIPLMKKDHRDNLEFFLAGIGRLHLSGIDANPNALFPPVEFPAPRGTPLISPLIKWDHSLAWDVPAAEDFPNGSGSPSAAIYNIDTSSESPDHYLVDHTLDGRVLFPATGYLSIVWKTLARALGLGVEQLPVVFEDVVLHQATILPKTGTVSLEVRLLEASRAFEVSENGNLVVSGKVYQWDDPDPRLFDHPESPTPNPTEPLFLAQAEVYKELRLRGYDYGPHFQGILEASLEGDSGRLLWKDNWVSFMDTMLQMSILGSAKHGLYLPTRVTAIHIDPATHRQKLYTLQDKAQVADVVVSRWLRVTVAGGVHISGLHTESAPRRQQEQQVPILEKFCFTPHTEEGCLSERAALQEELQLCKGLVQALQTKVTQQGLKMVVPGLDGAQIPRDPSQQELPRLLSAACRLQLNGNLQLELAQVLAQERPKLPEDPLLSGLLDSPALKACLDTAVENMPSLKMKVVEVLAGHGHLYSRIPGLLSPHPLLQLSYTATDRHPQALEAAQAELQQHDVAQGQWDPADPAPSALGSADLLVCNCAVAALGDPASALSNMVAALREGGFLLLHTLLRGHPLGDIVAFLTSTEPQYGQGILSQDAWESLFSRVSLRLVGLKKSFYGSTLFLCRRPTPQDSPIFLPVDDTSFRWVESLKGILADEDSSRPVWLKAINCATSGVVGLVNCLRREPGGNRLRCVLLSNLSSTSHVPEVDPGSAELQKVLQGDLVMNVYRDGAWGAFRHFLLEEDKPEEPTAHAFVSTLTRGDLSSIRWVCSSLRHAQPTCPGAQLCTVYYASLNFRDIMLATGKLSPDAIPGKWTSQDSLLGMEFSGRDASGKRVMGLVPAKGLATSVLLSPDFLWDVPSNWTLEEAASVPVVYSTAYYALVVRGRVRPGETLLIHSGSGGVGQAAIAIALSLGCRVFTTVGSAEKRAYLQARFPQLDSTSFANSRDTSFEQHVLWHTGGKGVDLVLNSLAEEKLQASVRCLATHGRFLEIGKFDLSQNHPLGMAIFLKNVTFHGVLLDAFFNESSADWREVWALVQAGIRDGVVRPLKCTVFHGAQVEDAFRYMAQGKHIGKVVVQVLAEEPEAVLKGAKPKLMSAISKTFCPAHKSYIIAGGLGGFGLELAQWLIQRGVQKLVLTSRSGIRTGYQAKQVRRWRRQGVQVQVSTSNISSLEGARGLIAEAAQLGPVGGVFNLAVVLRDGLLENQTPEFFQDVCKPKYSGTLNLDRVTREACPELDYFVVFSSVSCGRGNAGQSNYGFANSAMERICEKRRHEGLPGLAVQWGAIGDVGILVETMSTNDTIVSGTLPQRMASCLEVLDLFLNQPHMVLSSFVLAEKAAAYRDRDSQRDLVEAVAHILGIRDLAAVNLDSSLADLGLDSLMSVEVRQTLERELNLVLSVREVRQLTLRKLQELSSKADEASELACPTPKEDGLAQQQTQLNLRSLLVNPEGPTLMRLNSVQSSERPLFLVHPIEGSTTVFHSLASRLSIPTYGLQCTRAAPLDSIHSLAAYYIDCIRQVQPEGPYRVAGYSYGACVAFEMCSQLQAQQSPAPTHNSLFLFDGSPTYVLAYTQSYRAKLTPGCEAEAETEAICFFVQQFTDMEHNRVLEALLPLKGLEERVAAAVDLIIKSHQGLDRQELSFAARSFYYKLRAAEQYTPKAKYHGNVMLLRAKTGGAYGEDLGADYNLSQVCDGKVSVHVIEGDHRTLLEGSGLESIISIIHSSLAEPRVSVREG
The test is described as follows: Intracellular FAS activity assay. In kind it is cell-based.
Source text: as §5, §7

Where [8] appears, read: fast-binding inhibition, 37 °C, mean ± SD, three experiments.
The mark [9] stands for this setting: fast-binding inhibition, 37 °C, mean ± SD, three experiments, read-out: FAS Inhibitory Activity IC50 (converted).
[10] abbreviates: LR 25 μg/mL + palmitic acid 100 μM, 24 h, versus LR alone.

Converted amounts (≈) assume the structure as drawn. Like-named read-outs stand apart in the source and are kept apart here.

T1 sequence (P12276 whole entry): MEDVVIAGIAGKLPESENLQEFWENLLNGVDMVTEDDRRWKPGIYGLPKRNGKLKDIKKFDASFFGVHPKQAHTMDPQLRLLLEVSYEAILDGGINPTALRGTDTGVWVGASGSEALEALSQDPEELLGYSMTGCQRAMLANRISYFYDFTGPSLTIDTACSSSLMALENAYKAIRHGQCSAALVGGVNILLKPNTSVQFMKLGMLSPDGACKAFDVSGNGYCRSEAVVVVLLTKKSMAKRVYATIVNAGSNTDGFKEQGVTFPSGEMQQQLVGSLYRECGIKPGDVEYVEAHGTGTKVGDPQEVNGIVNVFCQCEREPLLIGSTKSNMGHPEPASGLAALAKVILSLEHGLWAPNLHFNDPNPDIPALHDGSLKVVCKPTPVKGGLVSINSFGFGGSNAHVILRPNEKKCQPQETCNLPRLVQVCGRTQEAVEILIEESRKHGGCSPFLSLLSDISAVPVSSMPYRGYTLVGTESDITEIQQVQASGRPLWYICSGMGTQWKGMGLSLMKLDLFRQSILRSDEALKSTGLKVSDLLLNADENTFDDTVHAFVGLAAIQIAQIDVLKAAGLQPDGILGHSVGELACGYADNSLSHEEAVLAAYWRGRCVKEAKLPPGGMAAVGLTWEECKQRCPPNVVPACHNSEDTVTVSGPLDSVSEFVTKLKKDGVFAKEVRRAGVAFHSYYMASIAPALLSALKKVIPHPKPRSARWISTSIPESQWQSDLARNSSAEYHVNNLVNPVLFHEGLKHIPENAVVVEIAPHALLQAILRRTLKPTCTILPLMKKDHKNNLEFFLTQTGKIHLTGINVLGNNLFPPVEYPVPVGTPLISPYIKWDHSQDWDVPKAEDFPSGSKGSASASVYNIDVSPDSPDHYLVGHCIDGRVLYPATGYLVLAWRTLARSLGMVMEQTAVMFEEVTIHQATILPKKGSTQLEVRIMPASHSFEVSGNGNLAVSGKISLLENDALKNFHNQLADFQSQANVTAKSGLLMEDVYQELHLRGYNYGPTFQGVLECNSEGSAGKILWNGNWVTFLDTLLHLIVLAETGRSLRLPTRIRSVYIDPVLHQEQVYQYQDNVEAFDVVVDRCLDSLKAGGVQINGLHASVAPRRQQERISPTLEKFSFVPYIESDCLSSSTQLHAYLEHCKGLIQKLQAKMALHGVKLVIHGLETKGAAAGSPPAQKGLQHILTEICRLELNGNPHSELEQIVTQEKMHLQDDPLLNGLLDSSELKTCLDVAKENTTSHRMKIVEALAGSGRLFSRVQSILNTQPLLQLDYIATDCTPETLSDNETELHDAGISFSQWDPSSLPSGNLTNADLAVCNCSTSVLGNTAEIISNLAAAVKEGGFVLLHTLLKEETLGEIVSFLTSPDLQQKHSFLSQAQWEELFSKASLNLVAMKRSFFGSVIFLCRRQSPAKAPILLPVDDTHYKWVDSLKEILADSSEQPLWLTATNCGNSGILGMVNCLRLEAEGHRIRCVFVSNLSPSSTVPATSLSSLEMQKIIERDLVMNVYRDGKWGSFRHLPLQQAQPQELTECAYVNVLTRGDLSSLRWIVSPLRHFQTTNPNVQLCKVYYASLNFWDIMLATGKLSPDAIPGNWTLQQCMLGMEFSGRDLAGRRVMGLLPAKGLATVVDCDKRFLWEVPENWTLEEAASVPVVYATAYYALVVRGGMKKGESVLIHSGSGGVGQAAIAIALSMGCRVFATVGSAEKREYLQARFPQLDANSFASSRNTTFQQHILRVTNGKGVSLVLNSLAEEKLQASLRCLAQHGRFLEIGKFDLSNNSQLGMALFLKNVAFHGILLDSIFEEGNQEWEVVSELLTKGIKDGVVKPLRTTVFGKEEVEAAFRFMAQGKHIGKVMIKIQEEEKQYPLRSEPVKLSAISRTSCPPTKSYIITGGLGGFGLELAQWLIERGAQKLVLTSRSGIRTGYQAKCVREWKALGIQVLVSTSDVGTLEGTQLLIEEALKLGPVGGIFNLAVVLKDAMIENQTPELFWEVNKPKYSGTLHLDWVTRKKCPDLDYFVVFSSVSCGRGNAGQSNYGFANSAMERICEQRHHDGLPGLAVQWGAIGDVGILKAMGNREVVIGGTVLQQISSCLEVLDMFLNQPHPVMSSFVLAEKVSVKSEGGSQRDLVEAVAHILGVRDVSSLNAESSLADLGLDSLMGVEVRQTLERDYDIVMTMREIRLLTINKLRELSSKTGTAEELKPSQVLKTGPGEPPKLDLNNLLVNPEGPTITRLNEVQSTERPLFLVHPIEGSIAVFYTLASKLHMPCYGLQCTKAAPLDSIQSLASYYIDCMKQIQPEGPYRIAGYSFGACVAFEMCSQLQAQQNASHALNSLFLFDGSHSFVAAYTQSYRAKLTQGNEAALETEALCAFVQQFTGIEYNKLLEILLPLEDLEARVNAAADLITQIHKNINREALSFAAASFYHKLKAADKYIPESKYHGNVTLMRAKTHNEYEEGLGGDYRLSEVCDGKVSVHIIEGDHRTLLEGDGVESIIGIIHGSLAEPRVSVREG
T2 sequence (P12276 whole entry, the tested form may be a part): as the sequence (P12276 whole entry) above
T4 sequence (P49327 whole entry): as the sequence (P49327 whole entry) above
T3 sequence (P49327 whole entry): as above

As for `O=C(O[C@@H]1Cc2c(O)cc(O)cc2O[C@@H]1c1cc(O)c(O)c(O)c1)c1cc(O)c(O)c(O)c1` [EGCG, epigallocatechin gallate, reference compound], the “FAS Inhibitory Activity IC50” value on chicken liver FAS [1] (setting [8]) is 24.8 ± 2.2 µg/mL.
In general, IC50 refers to the concentration needed to halve the response being measured. `COc1cc(C2c3c(cc(OC)c(O)c3OC)CC(CO)C2COC2OCC(O)C(O)C2O)cc(OC)c1O` (stereo not drawn) [LA, lyoniresinol-3α-O-β-arabinopyranoside]: the “FAS Inhibitory Activity IC50” value at chicken liver FAS [1] (setting [8]) was “did not show a significant inhibitory effect”. Besides, at chicken liver FAS [1] (setting [9]), the IC50 is > 362 µM.
Taken in the same sequence, the figures for `CC1OC(OC2Cc3c(O)cc(O)cc3OC2c2ccc(O)cc2)C(O)C(O)C1O` (stereo not shown) [AR, afzelechin-3-rhamnopyranoside] were “did not show a significant inhibitory effect” and > 476 µM.
For `COc1cc(C2c3c(cc(OC)c(O)c3OC)CC(CO)C2COC2OC(C)C(O)C(O)C2O)cc(OC)c1O` (stereo not drawn) [LR, lyoniresinol-3α-O-β-rhamnopyranoside], the IC50 at chicken liver FAS [1] (setting [9]) was 35.5 µM; at chicken liver FAS [1] (same value as 20.1 µg/mL given in molar unit, read-out: FAS inhibition IC50) it was 35.5 µM; in test [2] it was 56.3 µM; with CaCo2 cells (Homo sapiens, Caco-2, 24 h, MTT), 28.4 µg/mL (≈ 50.1 µM); in the test on LoVo cells (Homo sapiens, MTT), 24.9 µg/mL (≈ 43.9 µM); in the test with SW620 cells (Homo sapiens, SW-620, 24 h, MTT) it was 22.1 µg/mL (≈ 39 µM). Besides, the results for the IC50 in test [6] (24 h treatment) and in [7] (24 h treatment) were 45 µM and 38.5 µM, respectively. Besides, at chicken liver FAS [3] (acetyl-CoA variable substrate), the “Type of inhibition with respect to acetyl-CoA” value is given as “competitively”. The “Type of inhibition with respect to malonyl-CoA” value on chicken liver FAS [3] (malonyl-CoA variable substrate) is listed as “noncompetitively”. In addition, the “Type of inhibition with respect to NADPH” value in test [4] is reported as “competitively”. Also, the “Cell viability with exogenous palmitic acid (rescue)” value in the test with CaCo2 cells (setting [10]) is reported as “restored significantly”; in the test with LoVo cells (LR 25 μg/mL + palmitic acid 100 μM, versus LR alone), “restored significantly”; in the test with SW620 cells (setting [10]) it was “restored significantly”. Moreover, the “Relative FAS activity” value in [5] is reported as “under 20%”; in [6] (LR 60 µg/mL, 24 h), “under 20%”; in test [7] (LR 60 µg/mL, 24 h), “under 20%”.

The record behind these values is publication PMC10934235, “Inhibitory Effects of the Polyphenols from the Root of Rhizophora apiculata Blume on Fatty Acid Synthase Activity and Human Colon Cancer Cells” (Molecules, 2024).
